In ChEMBL document CHEMBL5053535, “Design, synthesis and biological evaluation of novel aminopyrazole- and 7-azaindole-based Nek1 inhibitors and their effects on zebrafish kidney development” (Bioorg Med Chem Lett, 2021):
pIC50: −log10 of the molar value. In brackets after ≈: the same amount, converted by molar mass.

How the values were obtained:
[1] = target: T1, Serine/threonine-protein kinase Nek1 (Homo sapiens) (UniProt Q96PY6); assay: Inhibition of human NEK1 using myelin basic protein as substrate assessed as residual activity at 1 uM in presence of [gamma-33P]-ATP by radiometric hotspot kinase assay relative to control
T1 sequence (whole entry): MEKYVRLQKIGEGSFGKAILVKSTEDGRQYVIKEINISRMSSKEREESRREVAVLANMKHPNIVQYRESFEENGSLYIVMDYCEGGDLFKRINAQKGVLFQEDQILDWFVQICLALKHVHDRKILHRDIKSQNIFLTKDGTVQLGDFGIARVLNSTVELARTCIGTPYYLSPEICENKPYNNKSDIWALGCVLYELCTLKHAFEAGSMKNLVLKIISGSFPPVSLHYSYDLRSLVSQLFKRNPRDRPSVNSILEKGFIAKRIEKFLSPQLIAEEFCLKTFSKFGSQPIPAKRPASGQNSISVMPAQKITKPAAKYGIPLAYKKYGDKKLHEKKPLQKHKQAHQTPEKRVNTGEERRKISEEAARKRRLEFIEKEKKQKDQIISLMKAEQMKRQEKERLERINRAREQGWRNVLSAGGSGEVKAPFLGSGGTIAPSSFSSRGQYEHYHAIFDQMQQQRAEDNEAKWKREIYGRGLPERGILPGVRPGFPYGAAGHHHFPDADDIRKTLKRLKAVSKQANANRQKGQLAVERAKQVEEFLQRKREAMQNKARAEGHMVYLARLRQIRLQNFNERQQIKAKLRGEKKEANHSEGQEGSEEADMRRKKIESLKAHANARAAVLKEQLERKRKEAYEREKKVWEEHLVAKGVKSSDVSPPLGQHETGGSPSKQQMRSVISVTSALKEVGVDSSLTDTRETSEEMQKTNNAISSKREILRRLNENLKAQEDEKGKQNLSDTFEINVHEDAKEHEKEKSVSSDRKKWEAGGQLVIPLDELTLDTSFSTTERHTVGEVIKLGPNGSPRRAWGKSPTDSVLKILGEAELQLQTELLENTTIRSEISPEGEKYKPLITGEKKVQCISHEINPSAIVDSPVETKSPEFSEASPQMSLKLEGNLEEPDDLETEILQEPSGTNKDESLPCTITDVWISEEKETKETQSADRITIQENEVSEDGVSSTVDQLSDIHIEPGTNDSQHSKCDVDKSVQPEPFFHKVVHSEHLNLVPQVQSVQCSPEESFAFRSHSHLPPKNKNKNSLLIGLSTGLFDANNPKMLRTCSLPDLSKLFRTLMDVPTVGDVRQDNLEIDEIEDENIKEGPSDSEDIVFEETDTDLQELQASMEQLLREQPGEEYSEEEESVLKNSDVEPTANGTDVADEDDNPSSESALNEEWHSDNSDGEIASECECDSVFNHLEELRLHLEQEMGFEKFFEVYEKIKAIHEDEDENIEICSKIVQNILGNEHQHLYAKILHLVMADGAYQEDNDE

[2] = target: T1, Serine/threonine-protein kinase Nek1 (Homo sapiens); assay: Inhibition of human NEK1 using myelin basic protein as substrate assessed as residual activity at 10 uM in presence of [gamma-33P]-ATP by radiometric hotspot kinase assay relative to control
[3] = target: Wee1-like protein kinase (Homo sapiens) (UniProt P30291); assay: Inhibition of human recombinant full length WEE1 expressed in insect cells using MBP as substrate assessed as residual activity at 1 uM pretreated for 20 mins followed by [33P]-ATP addition measured after 120 mins by radiometric hotspot kinase assay relative to control; conditions: time 140.0 min
[4] = Solubility of the compound in DMEM with 1% DMSO by DAD-HPLC based shake flask method; format: physicochemical
[5] = Stability of the compound in DMEM measured after 48 hrs by DAD-HPLC method; format: physicochemical; conditions: read-out: Stability
[6] = Permeability across apical to basolateral side in human Caco-2 cells at pH 6.5 assessed as compound recovery at 1 uM; format: ADME, cell-based; conditions: Caco-2, pH 6.5, read-out: Drug recovery
[7] = Permeability across basolateral to apical side in human Caco-2 cells at pH 7.4 assessed as compound recovery at 1 uM; format: ADME, cell-based; conditions: Caco-2, pH 7.4, read-out: Drug recovery
[8] = Permeability across basolateral to apical side in human Caco-2 cells at pH 7.4 at 1 uM; format: ADME, cell-based; conditions: Caco-2, pH 7.4, read-out: permeability
[9] = target: Cyclin-dependent kinase 2/cyclin E1 (Homo sapiens) (UniProt P24864+P24941); assay: (§1) Inhibition of human recombinant full length C-terminal His6 tagged CDK2/ N-terminal GST-tagged Cyclin E expressed in baculovirus infected Sf21 insect cells using histone H1 as substrate assessed as residual activity at 1 uM pretreated for 20 mins followed by [33P]-ATP addition measured after 120 mins by radiometric hotspot kinase assay relative to control; conditions: time 140.0 min
[10] = target: T2, Serine/threonine-protein kinase Nek5 (Homo sapiens) (UniProt Q6P3R8); assay: Inhibition of human recombinant NEK5 assessed as residual activity at 1 uM pretreated for 20 mins followed by [33P]-ATP addition measured after 120 mins by radiometric hotspot kinase assay relative to control; conditions: time 140.0 min
T2 sequence (whole entry): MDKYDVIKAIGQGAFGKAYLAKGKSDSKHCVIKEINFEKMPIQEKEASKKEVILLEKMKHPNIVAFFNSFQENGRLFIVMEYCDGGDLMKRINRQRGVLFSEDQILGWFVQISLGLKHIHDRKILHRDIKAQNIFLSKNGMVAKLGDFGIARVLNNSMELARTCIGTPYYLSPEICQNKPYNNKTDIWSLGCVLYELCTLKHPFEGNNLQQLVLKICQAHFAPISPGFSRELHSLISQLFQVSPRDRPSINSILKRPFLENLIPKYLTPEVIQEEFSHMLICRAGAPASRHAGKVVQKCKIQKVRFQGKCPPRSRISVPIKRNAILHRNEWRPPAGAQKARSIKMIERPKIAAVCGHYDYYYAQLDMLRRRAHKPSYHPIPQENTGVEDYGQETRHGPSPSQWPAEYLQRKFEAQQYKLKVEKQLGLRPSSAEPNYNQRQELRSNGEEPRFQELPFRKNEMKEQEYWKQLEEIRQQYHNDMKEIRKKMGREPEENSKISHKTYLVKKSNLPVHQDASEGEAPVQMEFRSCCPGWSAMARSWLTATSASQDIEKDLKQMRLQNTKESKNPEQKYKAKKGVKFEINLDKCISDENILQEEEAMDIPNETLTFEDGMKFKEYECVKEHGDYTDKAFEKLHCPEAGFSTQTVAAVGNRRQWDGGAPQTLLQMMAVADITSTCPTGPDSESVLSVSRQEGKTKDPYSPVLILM

[11] = Permeability across apical to basolateral side in human Caco-2 cells at pH 6.5 at 1 uM; format: ADME, cell-based; conditions: Caco-2, pH 6.5, read-out: permeability
[12] = target: T3, Serine/threonine-protein kinase Nek1 (Homo sapiens, UniProt Q96PY6); assay: Inhibition of human NEK1 using myelin basic protein as substrate assessed as residual activity in presence of [gamma-33P]-ATP by radiometric hotspot kinase assay relative to control
T3 sequence (Q96PY6 whole entry): T1 sequence (whole entry)

[13] = Solubility of the compound in E3 medium with 0.2% DMSO by DAD-HPLC based shake flask method; format: physicochemical
[14] = target: Vascular endothelial growth factor receptor 2 (Homo sapiens) (UniProt P35968); assay: Inhibition of human recombinant C-terminal His6 tagged VEGFR2 (789 to 1356 residues) expressed in baculovirus infected insect cells assessed as residual activity at 1 uM pretreated for 20 mins followed by [33P]-ATP addition measured after 120 mins by radiometric hotspot kinase assay relative to control; conditions: time 140.0 min
[15] = target: T4, Serine/threonine-protein kinase Chk1 (Homo sapiens) (UniProt O14757); assay: as §1, with “N-terminal His” for “C-terminal His6”, “CHK1” for “CDK2/ N-terminal GST-tagged Cyclin E”, “CHKtide” for “histone H1”; conditions: time 140.0 min
T4 sequence (whole entry): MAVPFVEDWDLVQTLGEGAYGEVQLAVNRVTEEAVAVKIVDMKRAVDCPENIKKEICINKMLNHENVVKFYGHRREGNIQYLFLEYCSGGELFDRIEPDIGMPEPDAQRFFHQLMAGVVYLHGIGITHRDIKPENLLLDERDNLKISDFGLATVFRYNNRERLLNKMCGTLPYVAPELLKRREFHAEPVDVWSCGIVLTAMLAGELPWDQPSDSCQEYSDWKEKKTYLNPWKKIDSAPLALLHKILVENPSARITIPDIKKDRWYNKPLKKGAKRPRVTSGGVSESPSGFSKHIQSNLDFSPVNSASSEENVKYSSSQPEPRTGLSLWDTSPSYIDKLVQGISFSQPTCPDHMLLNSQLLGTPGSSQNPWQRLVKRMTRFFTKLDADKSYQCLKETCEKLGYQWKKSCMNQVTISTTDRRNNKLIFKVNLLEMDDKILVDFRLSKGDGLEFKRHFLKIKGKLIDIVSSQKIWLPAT

Wee1-like protein kinase (Homo sapiens), sequence (P30291 whole entry, looked up): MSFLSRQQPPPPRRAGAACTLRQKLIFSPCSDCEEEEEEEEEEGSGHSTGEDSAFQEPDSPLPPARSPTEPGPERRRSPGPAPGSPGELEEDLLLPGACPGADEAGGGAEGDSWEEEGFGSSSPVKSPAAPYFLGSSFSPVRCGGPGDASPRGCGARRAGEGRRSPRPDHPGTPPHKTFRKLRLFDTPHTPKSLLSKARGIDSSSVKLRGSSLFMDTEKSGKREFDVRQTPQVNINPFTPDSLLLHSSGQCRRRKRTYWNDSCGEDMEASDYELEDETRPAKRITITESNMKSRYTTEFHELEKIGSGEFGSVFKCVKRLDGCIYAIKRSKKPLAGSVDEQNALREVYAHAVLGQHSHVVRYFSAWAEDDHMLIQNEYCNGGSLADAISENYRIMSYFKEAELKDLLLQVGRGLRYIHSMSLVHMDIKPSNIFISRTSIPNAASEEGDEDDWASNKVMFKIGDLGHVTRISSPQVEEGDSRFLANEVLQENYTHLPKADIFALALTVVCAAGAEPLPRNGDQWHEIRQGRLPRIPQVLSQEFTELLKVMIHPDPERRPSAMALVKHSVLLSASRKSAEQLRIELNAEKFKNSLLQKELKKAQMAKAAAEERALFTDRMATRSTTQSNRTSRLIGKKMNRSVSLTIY
Vascular endothelial growth factor receptor 2 (Homo sapiens), sequence (P35968 whole entry, the tested form may be a part): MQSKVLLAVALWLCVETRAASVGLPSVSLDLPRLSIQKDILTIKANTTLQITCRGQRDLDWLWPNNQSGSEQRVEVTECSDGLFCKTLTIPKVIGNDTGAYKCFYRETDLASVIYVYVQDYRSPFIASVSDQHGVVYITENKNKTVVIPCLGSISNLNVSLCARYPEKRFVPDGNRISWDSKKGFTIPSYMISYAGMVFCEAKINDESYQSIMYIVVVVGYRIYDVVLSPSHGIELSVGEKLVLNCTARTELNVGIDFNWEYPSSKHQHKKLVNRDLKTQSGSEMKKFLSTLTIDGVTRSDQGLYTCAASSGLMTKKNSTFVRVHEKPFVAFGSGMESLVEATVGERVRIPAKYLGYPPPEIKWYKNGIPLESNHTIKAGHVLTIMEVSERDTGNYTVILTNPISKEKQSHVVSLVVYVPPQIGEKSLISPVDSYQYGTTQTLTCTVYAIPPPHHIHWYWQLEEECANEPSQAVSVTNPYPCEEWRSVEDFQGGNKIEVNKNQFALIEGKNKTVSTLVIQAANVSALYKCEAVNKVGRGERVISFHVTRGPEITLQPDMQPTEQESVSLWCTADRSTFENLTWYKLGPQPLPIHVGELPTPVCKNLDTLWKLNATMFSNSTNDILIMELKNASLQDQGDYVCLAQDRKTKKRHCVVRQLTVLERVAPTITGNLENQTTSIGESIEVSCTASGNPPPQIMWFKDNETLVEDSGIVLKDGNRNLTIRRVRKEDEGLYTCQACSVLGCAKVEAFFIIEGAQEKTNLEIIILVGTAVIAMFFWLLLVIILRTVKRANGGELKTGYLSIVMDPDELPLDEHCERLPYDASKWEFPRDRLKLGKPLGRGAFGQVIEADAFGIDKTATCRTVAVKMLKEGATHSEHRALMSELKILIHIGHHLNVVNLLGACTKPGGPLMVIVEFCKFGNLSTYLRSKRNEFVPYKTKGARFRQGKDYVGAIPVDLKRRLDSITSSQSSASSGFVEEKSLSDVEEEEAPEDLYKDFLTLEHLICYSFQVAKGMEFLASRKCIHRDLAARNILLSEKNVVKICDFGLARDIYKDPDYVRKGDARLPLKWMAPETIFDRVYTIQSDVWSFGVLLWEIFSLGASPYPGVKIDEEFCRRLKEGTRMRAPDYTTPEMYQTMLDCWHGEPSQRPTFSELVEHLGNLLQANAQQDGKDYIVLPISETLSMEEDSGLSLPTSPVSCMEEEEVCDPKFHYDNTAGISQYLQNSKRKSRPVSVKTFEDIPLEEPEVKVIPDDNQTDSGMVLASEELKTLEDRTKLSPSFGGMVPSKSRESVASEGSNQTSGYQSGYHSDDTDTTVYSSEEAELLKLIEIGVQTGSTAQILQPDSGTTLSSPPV

Compound: O=[N+]([O-])c1cccc(Nc2nccc(Nc3cc(C4CC4)[nH]n3)n2)c1
- Activity [1]: 28.5%

Compound: Cc1cc(Nc2ccnc(NCc3cccnc3)n2)n[nH]1
- Activity [1]: 101%

Compound: Cc1cc(Nc2ccnc(NCc3ccccn3)n2)n[nH]1
- Activity [1]: 90.8%

Compound: COC(=O)c1cccc(-c2cnc3[nH]cc(-c4ccccc4OC)c3c2)c1
- Activity [1]: 60.9%

Compound: c1ccc(-c2cnc3[nH]cc(-c4ccccc4)c3c2)cc1
- Activity [1]: 29.3%

Compound: O=[N+]([O-])c1cccc(-c2cnc3[nH]ccc3c2)c1
- Activity [2]: 78.5%

Compound: c1ccc(Nc2nccc(Nc3cc(-c4ccccc4)[nH]n3)n2)cc1
- Activity [1]: 65.9%

Compound: Cc1cc(Nc2ccnc(Nc3cccc([N+](=O)[O-])c3)n2)n[nH]1
- Activity [1]: 36.6%

Compound: Cc1cc(Nc2ccnc(N(C)Cc3ccccc3)n2)n[nH]1
- Activity [1]: 91.8%

Compound: COC(=O)c1cccc(-c2cnc3[nH]cc(-c4cncnc4)c3c2)c1
- Activity [3]: 76.2%
- solubility [4]: 28.6 µM (≈ 9.45 µg/mL)
- remaining at 48 h [5]: 72%
- recovery at 1 µM [6]: 1.5%
- recovery at 1 µM [7]: 41.1%
- Papp B→A at 1 µM [8]: 0.21 ×10⁻⁶ cm/s
- Activity [9]: 22.3%
- Activity [1]: 5.89%
- Activity [10]: 23.3%
- Papp A→B at 1 µM [11]: 0.37 ×10⁻⁶ cm/s
- pIC50 [12]: 7.20
- solubility [13]: 4.6 µM (≈ 1.52 µg/mL)
- Activity [14]: 61.3%
- Activity [15]: 73.8%

Compound: COC(=O)c1cccc(-c2cnc3[nH]cc(-c4ccccc4)c3c2)c1
- Activity [3]: 82.9%
- solubility [4]: 4.4 µM (≈ 1.44 µg/mL)
- remaining at 48 h [5]: 86%
- Activity [9]: 23.5%
- Activity [1]: 7.31%
- Activity [10]: 78.7%
- pIC50 [12]: 6.91
- solubility [13]: 2.5 µM (≈ 0.821 µg/mL)
- Activity [14]: 97.2%
- Activity [15]: > 100%

Compound: N#Cc1cccc(-c2cnc3[nH]cc(-c4ccccc4)c3c2)c1
- Activity [1]: 52.3%

Compound: CCCCNc1nccc(Nc2cc(C)[nH]n2)n1
- Activity [1]: 86.9%

Compound: Cc1cc(Nc2ccnc(Nc3ccccc3)n2)n[nH]1
- Activity [1]: 74.8%

Compound: N#Cc1cccc(-c2cnc3[nH]cc([N+](=O)[O-])c3c2)c1
- Activity [1]: > 100%

Compound: COCCNc1nccc(Nc2cc(C)[nH]n2)n1
- Activity [1]: 99.8%

Compound: N#Cc1cccc(-c2cnc3[nH]cc(Br)c3c2)c1
- Activity [1]: > 100%

Compound: Cc1cc(Nc2ccnc(Nc3ccccc3C)n2)n[nH]1
- Activity [1]: 87.5%

Compound: Cc1cc(Nc2ccnc(N3CCN(C)CC3)n2)n[nH]1
- Activity [1]: 98.4%

Compound: O=C(O)c1cccc(-c2cnc3[nH]ccc3c2)c1
- Activity [2]: 72.8%

Compound: N#Cc1cccc(-c2cnc3[nH]cc(-c4ccncc4)c3c2)c1
- Activity [1]: 74.3%
